Counter-ions that a name gives are not always drawn.
What follows are molecules tested on Cellular Release of Amyloid Peptide 1-40 (assay: Test 4: Inhibition of Cellular Release of Amyloid Peptide 1-40). Conditions: Cricetulus griseus, 24 h; read-out: Amyloid-β1-40 release IC50.
Format: cell-based, Chinese hamster
Method: Chinese hamster ovary cells are transfected with the human gene for amyloid precursor protein. The cells are plated at a density of 8000 cells/well into 96-well microtiter plates and cultivated for 24 hours in DMEM cell culture medium containing 10% FCS. The test compound is added to the cells at various concentrations, and the cells are cultivated for 24 hours in the presence of the test compound.
`NC1=NC(CF)(c2cccc(NC(=O)c3ccc(Br)cn3)n2)COC1` (stereo not drawn) [Example 4, 5-Bromo-pyridine-2-carboxylic acid [6-(5-amino-3-fluoromethyl-3,6-dihydro-2H-[1,4]oxazin-3-yl)-pyridin-2-yl]-amide] showed an IC50 of 98 nM. In the case of `[2H]c1nc(C(=O)Nc2cccc([C@]3(C)CO[C@@](C)(C(F)(F)F)C(N)=N3)n2)c(C([2H])([2H])[2H])c([2H])c1Cl` [Example 21, 5-Chloro-4,6-dideuterio-3-trideuteriomethyl-pyridine-2-carboxylic acid [6-((3R,6R)-5-amino-3,6-dimethyl-6-trifluoromethyl-3,6-dihydro-2H-[1,4]oxazin-3-yl)-pyridin-2-yl]-amide], the IC50 is reported as 110 nM. `NC1=NC(CF)(c2cc(NC(=O)c3ccc(Br)cn3)cnc2Cl)COC1` (stereo not drawn) [Example 18, 5-Bromo-pyridine-2-carboxylic acid [5-(5-amino-3-fluoromethyl-3,6-dihydro-2H-[1,4]oxazin-3-yl)-6-chloro-pyridin-3-yl]-amide hydrochloride] showed an IC50 of 15 nM.

— patent US10683287B2, “Heterocyclic derivatives and their use in the treatment of neurological disorders” (Novartis AG, priority 2011, dated 2020)
